The text below walks through data of ChEMBL document CHEMBL1781934, “Syntheses and studies of amamistatin B analogs reveals that anticancer activity is relatively independent of stereochemistry, ester or amide linkage and select replacement of one of the metal chelating groups” (Bioorg Med Chem Lett, 2011).

pIC50: −log10 of the molar value. ≈ marks a conversion by molar mass, not a printed value.

The test system of assay [1] is MCF7. As to the kind of experiment: Growth inhibition of human MCF7 cells at 20 uM after 72 hrs by crystal violet biomass reduction assay. Particulars: MCF7, 72 h, read-out: GI. It counts as functional.
Assay [2] has as its system PC-3. As to the kind of experiment: Anticancer activity against human PC3 cells after 72 hrs by crystal violet biomass reduction assay. It counts as functional, cell-based. Particulars: PC-3, 72 h.
The subject of assay [3] is PC-3. As to the kind of experiment: Growth inhibition of human PC3 cells at 20 uM after 72 hrs by crystal violet biomass reduction assay. Type of assay: functional. Particulars: PC-3, 72 h, read-out: GI.
For assay [4], the system named is MCF7. As to the kind of experiment: Anticancer activity against human MCF7 cells after 72 hrs by crystal violet biomass reduction assay. Particulars: MCF7, 72 h. Type of assay: functional, cell-based.
The test system of the next assay is P388. As to the kind of experiment: Cytotoxicity against mouse P388 cells. Type of assay: functional, cell-based.

Broadly, the pIC50 is the IC50 on a negative log10 scale, so that one unit is a factor of ten. Low readings indicate a high IC50, high ones a low IC50. Usually IC50 stands for the concentration that inhibits the measured activity by half.

Consider `CCCCCCC[C@H](CC(=O)N[C@H]1CCCCN(O)C1=O)OC(=O)[C@H](CCCCN(O)C=O)NC(=O)c1nc(-c2ccccc2O)oc1C`, for which the inhibition of growth at 20 µM with MCF7 [1] amounted to 94%; in the assay with PC-3 [3], 72%. The pIC50 in the assay on PC-3 [2] is 5.40; in the assay on MCF7 [4] it was 6.70.
In the case of `CCCCCCC[C@@H](CC(=O)N[C@H]1CCCCN(O)C1=O)OC(=O)[C@H](CCCCN(O)C=O)NC(=O)c1nc(-c2ccccc2O)oc1C`, the values for the inhibition of growth at 20 µM in the assay on MCF7 [1] and in the assay with PC-3 [3] were 91% and 62%, respectively. The pIC50 is 5.10 with PC-3 [2] and 6.49 with MCF7 [4].
For `CCCCCCC[C@H](CC(=O)N[C@H]1CCCCN(O)C1=O)NC(=O)[C@H](CCCCN(O)C=O)NC(=O)c1nc(-c2ccccc2O)oc1C`, the results for the inhibition of growth at 20 µM with MCF7 [1] and with PC-3 [3] were 96% and 72%, respectively. Also, the pIC50 is 5.05 in the assay on PC-3 [2] and 6.26 with MCF7 [4].
Take `CCCCCCC[C@@H](CC(=O)N[C@H]1CCCCN(O)C1=O)NC(=O)[C@H](CCCCN(O)C=O)NC(=O)c1nc(-c2ccccc2O)oc1C`: the inhibition of growth at 20 µM in the assay on MCF7 [1] was 95%; in the assay on PC-3 [3], 68%. The values for the pIC50 in the assay on PC-3 [2] and with MCF7 [4] were 4.85 and 5.70, respectively.
Consider `CCCCCCC[C@H](CC(=O)N[C@H]1CCCCN(O)C1=O)OC(=O)[C@H](CCCCN(O)C=O)NC(=O)c1coc(-c2ccccc2O)n1`, for which the results for the inhibition of growth at 20 µM in the assay on MCF7 [1] and in the assay with PC-3 [3] were 91% and 85%, respectively. The pIC50 with PC-3 [2] was 5.43; in the assay on MCF7 [4] it was 6.35.
The matching figures for `CCCCCCC[C@@H](CC(=O)N[C@H]1CCCCN(O)C1=O)OC(=O)[C@H](CCCCN(O)C=O)NC(=O)c1coc(-c2ccccc2O)n1`: 93%, 60%, 5.05 and 6.10.
The matching figures for `CCCCCCC[C@H](CC(=O)N[C@H]1CCCCN(O)C1=O)OC(=O)[C@H](CCCCN(O)C=O)NC(=O)[C@@H]1COC(c2ccccc2O)=N1`: 87%, 83%, 5.52 and 6.62.
Take `CCCCCCC[C@@H](CC(=O)N[C@H]1CCCCN(O)C1=O)OC(=O)[C@H](CCCCN(O)C=O)NC(=O)[C@@H]1COC(c2ccccc2O)=N1`: the inhibition of growth at 20 µM with MCF7 [1] amounted to 89%; in the assay on PC-3 [3], 79%. The pIC50 in the assay on PC-3 [2] is 5.52; in the assay on MCF7 [4], 6.30.
Regarding `CCCCCCC[C@H](CC(=O)N[C@H]1CCCCN(O)C1=O)OC(=O)[C@H](CCCCN(O)C=O)NC(=O)[C@H]1COC(c2ccccc2O)=N1`, the figures for the inhibition of growth at 20 µM in the assay on MCF7 [1] and in the assay with PC-3 [3] were 92% and 90%, respectively. Further, the results for the pIC50 with PC-3 [2] and in the assay with MCF7 [4] were 5.70 and 6.49, respectively.
The matching figures for `CCCCCCC[C@@H](CC(=O)N[C@H]1CCCCN(O)C1=O)OC(=O)[C@H](CCCCN(O)C=O)NC(=O)[C@H]1COC(c2ccccc2O)=N1`: 90%, 79%, 5.12 and 5.52.
Take `CCCCCCC[C@H](CC(=O)N[C@H]1CCCCN(O)C1=O)OC(=O)[C@H](CCCCN(O)C=O)NC(=O)c1cccc(O)c1O`: the figures for the inhibition of growth at 20 µM with MCF7 [1] and in the assay with PC-3 [3] were 86% and 40%, respectively. The molecule further gave a pIC50 in the assay on MCF7 [4] of 5.22.
For `CCCCCCC[C@@H](CC(=O)N[C@H]1CCCCN(O)C1=O)OC(=O)[C@H](CCCCN(O)C=O)NC(=O)c1cccc(O)c1O`, the figures for the inhibition of growth at 20 µM with MCF7 [1] and with PC-3 [3] were 81% and 63%, respectively. Moreover, the pIC50 with PC-3 [2] is 5.15; in the assay with MCF7 [4], 6.00.
The molecule `CCCCCCC[C@H](OC(=O)[C@@H](CCCCN(O)C=O)NC(=O)c1nc(-c2ccccc2O)oc1C)C(C)(C)C(=O)N[C@H]1CCCCN(O)C1=O` gave an IC50 in the assay on P388 of 0.016 µg/mL (≈ 0.0224 µM).
`CCCCCCC[C@H](OC(=O)[C@@H](CCCCN(O)C=O)NC(=O)c1nc(-c2cc(OC)ccc2O)oc1C)C(C)(C)C(=O)N[C@H]1CCCCN(O)C1=O` [AMAMISTATIN A] returned an IC50 in the assay with P388 of 0.015 µg/mL (≈ 0.0201 µM). The IC50 values of the last two molecules are within 1.5-fold of each other.
